The record followed here is patent US20260356820A1, “Pyrrolidine and Imidazolidine Based DNA Polymerase Theta Inhibitors and Use Thereof” (Thomas Jefferson University, priority 2022, published 2026).

Assay [1] deals with T1, human Polq polymerase domain (Homo sapiens, UniProt O75417).
T1 sequence (O75417 1792-2590): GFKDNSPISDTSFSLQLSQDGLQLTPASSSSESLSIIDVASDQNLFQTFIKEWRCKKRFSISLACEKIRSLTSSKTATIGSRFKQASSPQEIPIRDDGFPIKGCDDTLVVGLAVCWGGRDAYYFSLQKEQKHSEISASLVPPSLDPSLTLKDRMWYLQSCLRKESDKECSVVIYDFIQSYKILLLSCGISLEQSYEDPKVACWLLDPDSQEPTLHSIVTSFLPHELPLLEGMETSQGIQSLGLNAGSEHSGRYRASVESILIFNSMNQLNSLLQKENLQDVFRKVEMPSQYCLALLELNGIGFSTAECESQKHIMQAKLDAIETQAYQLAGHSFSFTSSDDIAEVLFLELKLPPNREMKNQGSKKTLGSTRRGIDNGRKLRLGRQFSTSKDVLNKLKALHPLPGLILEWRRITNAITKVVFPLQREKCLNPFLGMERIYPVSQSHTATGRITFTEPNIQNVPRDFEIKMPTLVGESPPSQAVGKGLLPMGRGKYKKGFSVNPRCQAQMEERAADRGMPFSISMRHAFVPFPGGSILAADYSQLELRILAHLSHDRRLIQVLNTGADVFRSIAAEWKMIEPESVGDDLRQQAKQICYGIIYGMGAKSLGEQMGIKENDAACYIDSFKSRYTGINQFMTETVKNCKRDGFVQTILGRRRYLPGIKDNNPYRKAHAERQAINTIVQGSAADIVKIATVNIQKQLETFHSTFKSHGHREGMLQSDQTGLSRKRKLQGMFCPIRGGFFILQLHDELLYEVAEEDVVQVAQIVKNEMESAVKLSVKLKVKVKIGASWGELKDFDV
Nature of the assay: Cy5 fluorescence assay of Polq polymerase domain inhibition. The assay is classed as biochemical.

In assay [2] the test system is cell types harboring BRCA2 mutations (PE01, VC8, CAPAN-1; BRCA2-null HCT116 and DLD1). Nature of the assay: Synergy with PARP inhibitors, clonogenic survival of BRCA2-mutated/null cells. It is filed as cell-based. The following applies: olaparib as PARP inhibitor, Combenefit software analysis. The source says:
FIG. 3A depicts a representative scatter plot and synergy plot showing clongenic survival of HCT116 BRCA2-null cells treated with varying concentrations of olaparib with DMSO or various concentrations of Example 6. FIG. 3B depicts a representative scatter plot synergy plot showing clongenic survival of DLD1 BRCA2-null cells treated with varying concentrations of olaparib with DMSO or various concentrations of Example 6. FIG. 3C depicts a representative scatter plot synergy plot showing clongenic survival of PE01 cells treated with varying concentrations of olaparib with DMSO or various concentrations of Example 6. FIG. 3D depicts a representative scatter plot synergy plot showing clongenic survival of VC8 cells treated with varying concentrations of olaparib with DMSO or various concentrations of Example 6. FIG. 3E depicts a representative scatter plot synergy plot showing clongenic survival of CAPAN-1 cells treated with varying concentrations of olaparib with DMSO or various concentrations of Example 6. FIG. 3F depicts a representative scatter plot showing clongenic survival of MDA-MB-231 cells following treatment with various concentrations of talazoparib and DMSO or various concentrations of Example 6 and representative images of colony plates. For FIG. 3A through FIG. 3F, data are presented as mean±SEM; n=3; p-values calculated by two-sample t test. […]

Setting [3] is: 5 nM Polq polymerase domain (residues 1792-2590), 60 nM primer-template, 50 uM dNTPs, 37 °C, 18 min, read-out: IC50 (nM) Polq.

Read-outs that look alike come from different tables or passages of the source.

In the case of `CN(C(=O)Oc1c(N2CCN(CCO)C2=O)cc(C(F)(F)F)cc1C(F)(F)F)c1ccc(F)cc1` [Example 6, 2,4-bis(trifluoromethyl)-6-(3-(2-hydroxyethyl)-2-oxoimidazolidin-1-yl)phenyl (4-fluorophenyl)(methyl)carbamate], it took 3.2 nM to reach half-maximal inhibition in assay [1] (IC50). Besides, in assay [2], the “synergy with PARP inhibitors (clonogenic survival)” value was “Synergy”. With `CNCC(O)CN1CCN(c2cc(C(F)(F)F)cc(C(F)(F)F)c2OC(=O)N(C)c2ccc(F)cc2)C1=O` (stereo not shown) [Example 48, 2-(3-(2-hydroxy-3-(methylamino)propyl)-2-oxoimidazolidin-1-yl)-4,6-bis(trifluoromethyl)phenyl (4-fluorophenyl)(methyl)carbamate], the IC50 in assay [1] (setting [3]) came to 5.1 nM. Turning to `[2H]C([2H])([2H])N(C(=O)Oc1c(N2CCN(C[C@@H](O)CN(C)C)C2=O)cc(C(F)(F)F)cc1C(F)(F)F)c1ccc(F)cc1` [Example 49, (S)-2-(3-(3-(dimethylamino)-2-hydroxypropyl)-2-oxoimidazolidin-1-yl)-4,6-bis(trifluoromethyl)phenyl (4-fluorophenyl)(methyl-d3)carbamate], in assay [1] (setting [3]), the IC50 amounted to 7.5 nM. Still for that read-out and setting: the same measure for `[2H]C([2H])([2H])N(C(=O)Oc1c(N2CCN(C[C@H](O)CN(C)C)C2=O)cc(C(F)(F)F)cc1C(F)(F)F)c1ccc(F)cc1` [Example 50, (R)-2-(3-(3-(dimethylamino)-2-hydroxypropyl)-2-oxoimidazolidin-1-yl)-4,6-bis(trifluoromethyl)phenyl (4-fluorophenyl)(methyl-d3)carbamate]: 5.1 nM; for `CN(C(=O)Cc1c(N2CCNC2=O)cc(C(F)(F)F)cc1C(F)(F)F)c1ccc(F)cc1` [Example 51, N-(4-fluorophenyl)-N-methyl-2-(2-(2-oxoimidazolidin-1-yl)-4,6-bis(trifluoromethyl)phenyl)acetamide]: 117 nM. `CN(C(=O)Oc1c(N2CCNC2=O)cc(C(F)(F)F)cc1C(F)(F)F)c1ccc(F)cn1` [Example 52, 2-(2-oxoimidazolidin-1-yl)-4,6-bis(trifluoromethyl)phenyl (5-fluoropyridin-2-yl)(methyl)carbamate]: in assay [1], it took 11.4 nM to reach half-maximal inhibition (IC50). `Cc1nc(N(C)C(=O)Oc2c(N3CCNC3=O)cc(C(F)(F)F)cc2C(F)(F)F)ccc1F` [Example 53, 2-(2-oxoimidazolidin-1-yl)-4,6-bis(trifluoromethyl)phenyl (5-fluoro-6-methylpyridin-2-yl)(methyl)carbamate]: 2.7 nM corresponded to half-maximal inhibition in assay [1] (IC50). In turn, `CN(C(=O)Oc1c(N2CCN(CCO)C2=O)cc(Cl)cc1C(F)(F)F)c1ccc(F)cc1` [Example 54, 4-chloro-2-(3-(2-hydroxyethyl)-2-oxoimidazolidin-1-yl)-6-(trifluoromethyl)phenyl (4-fluorophenyl)(methyl)carbamate] showed a half-maximal inhibitory concentration (IC50) in assay [1] of 68 nM. Still for that read-out and setting: the figure for `CN(C(=O)Oc1c(Cl)cc(Cl)cc1N1CCN(CCO)C1=O)c1ccc(F)cc1` [Example 55, 2,4-dichloro-6-(3-(2-hydroxyethyl)-2-oxoimidazolidin-1-yl)phenyl (4-fluorophenyl)(methyl)carbamate] is 133 nM.

Broadly, the IC50 is the point on the concentration scale where inhibition reaches its midpoint.
